Biological target: T1, COX-2
T1 construct: gene PTGS2; COX Activity Assay Kit (Cayman); species inferred from usual Cayman COX-2 (human recombinant; ovine possible); docking used PDB 3LN1
Assay: COX peroxidase activity kit, TMPD oxidation at […] nm
Type: biochemical
Settings: DMSO; triplicate

Q: O=C(C[C@H](O)C1(c2cccc(O)c2O)Oc2cccc3cccc(c23)O1)OC[C@H](O)CO [compound 1, (8S)-(22R)-2,3-dihydroxypropyl-3-(2-(2,3-dihydroxyphenyl)naphtho[1,8-de][1,3]dioxin-2-yl)-3-hydroxypropanoate] was tested. Which IC50 did it give?
A: 300 nM
